Assay results: publication PMC10650850, “Discovery, Structure–Activity Relationship and In Vitro Anticancer Activity of Small-Molecule Inhibitors of the Protein–Protein Interactions between AF9/ENL and AF4 or DOT1L” (Cancers, 2023)
Entries after “also recorded” stand apart in the source; their conditions may differ. Structures can show the parent of a compound that is named as a salt.

What was measured:
AF9-DOT1L interaction [1] = target: T1, AF9-DOT1L interaction (Homo sapiens, UniProt P42568); experiment: AlphaLisa assay, AF9-DOT1L interaction; assay type: binding; conditions: for IC50: read-out: IC50 (μM) against the AF9-DOT1L interaction
T1 construct: human AF9 AHD domain (475–568); made in house; host or cells: E. coli BL21(DE3)
T1 sequence (P42568 475-568): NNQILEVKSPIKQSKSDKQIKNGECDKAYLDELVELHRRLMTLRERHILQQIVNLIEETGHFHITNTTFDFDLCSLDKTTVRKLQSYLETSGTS
From the text: An AlphaLisa assay we previously developed was used for compound screening for inhibitors of the AF9-DOT1L interaction. The PPI takes the DOT1L-peptide coated donor beads and AF9 AHD coated acceptor beads together. The donor beads are illuminated with a laser beam (680 nm) to generate singlet oxygen radicals, which activate the adjacent acceptor beads to produce luminescence at 615 nm. When a compound can disrupt such PPI and separate the donor and acceptor beads, the highly unstable radicals are rapidly quenched by water without generating luminescence.
(§1) The cDNA for the human AF9 AHD domain (475–568) and ENL AHD domain (489–559) was synthesized (by Genscript, Piscataway, NJ, USA) and inserted into the pMAL c5X expression plasmid. The DOT1L peptide (Biotin-AHX-[…]) and AF4 peptide (Biotin-AHX-[…]) for the Alpha assay were purchased from Genscript.
(§2) Alpha assays were developed in our previous publication, using a Perkin-Elmer AlphaLisa anti-MBP kit, which contains streptavidin donor beads and anti-MBP acceptor beads. Briefly, the assay was performed using a MBP-protein (5 nM), a biotinylated peptide (40 nM), and increasing concentrations of a compound in 25 µL buffer (PBS with 0.5% BSA, pH 7.5) in 384-well plates according to the manufacturer’s protocol and measured with a Tecan SPARK microplate reader. Data were imported into Prism (version 5.0), and IC50 values from 3 independent experiments with standard deviation were obtained by using a standard dose-response curve fitting.

[2] = system: panel of MLL-r leukemia and other cancer cells; experiment: Antiproliferation assay (XTT), panel of MLL-r leukemia and other cancer cells; assay type: cell-based; conditions: 7 days; for EC50: 168 h, MV4;11, Molm-13, NB4 and HL60 cells, read-out: Antitumor activity EC50, span over MLL-r leukemia and AML cells; for Inhibition of tumor cell proliferation (in words): MV4;11, Molm-13, NB4, HL60 and Hela cells
Procedure: (§3) The antitumor activity of selected compounds was evaluated against the proliferation of a panel of MLL-r leukemia and other cancer cells. MV4;11 and Molm-13 leukemia cells contain MLL-AF4 and MLL-AF9 fusion oncogenes, respectively. NB4 and HL60 are AML cells without MLL translocation. Hela (cervical cancer) is a solid tumor cell line. […] The anti-proliferation activity of these compounds against other AML cells (i.e., NB4 and HL60) might be due to their inhibition of SEC-mediated gene expression (e.g., Myc), as observed in our previous studies.
(§4) Proliferation inhibition assays were performed using an XTT assay kit (Biotium, Fremont, CA, USA) following our previous methods. The antiproliferation EC50 values were determined using Prism 5 and the reported results were the mean values of at least three independent experiments. The incubation time for all compounds was 7 days.

Molm13 = experiment: Antiproliferation assay (XTT), Molm-13; assay type: cell-based; conditions: Homo sapiens, MOLM-13, 168 h, 7 days incubation, read-out: Antitumor activity EC50, Molm13;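 note: EC50 values in Micromolar not Nanomolar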
Procedure: as §3, §4

HL60 = experiment: Antiproliferation assay (XTT), HL60; assay type: cell-based; conditions: Homo sapiens, HL-60, 168 h, 7 days incubation, read-out: Antitumor activity EC50, HL60;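 note: EC50 values in Micromolar not Nanomolar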
Procedure: as §3, §4

NB4 = experiment: Antiproliferation assay (XTT), NB4; assay type: cell-based; conditions: Homo sapiens, NB-4, 168 h, 7 days incubation, read-out: Antitumor activity EC50, NB4;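 note: EC50 values in Micromolar not Nanomolar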
Procedure: as §3, §4

Hela = experiment: Antiproliferation assay (XTT), Hela; assay type: cell-based; conditions: 7 days incubation; for EC50: Homo sapiens, HeLa, 168 h, read-out: Antitumor activity EC50, Hela
Procedure: as §3, §4

MV4;11 = experiment: Antiproliferation assay (XTT), MV4;11; assay type: cell-based; conditions: Homo sapiens, MV4-11, 168 h, 7 days incubation, read-out: Antitumor activity EC50, MV4;11;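 note: EC50 values in Micromolar not Nanomolar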
Procedure: as §3, §4

ENL-AF4 = target: T2, ENL-AF4 (Homo sapiens, UniProt Q03111); experiment: AlphaLisa assay, ENL-AF4 interaction; assay type: binding; conditions: ENL AHD, AF4 peptide
T2 construct: ENL AHD domain (489–559); made in house; host or cells: E. coli BL21(DE3)
T2 sequence (Q03111 489-559): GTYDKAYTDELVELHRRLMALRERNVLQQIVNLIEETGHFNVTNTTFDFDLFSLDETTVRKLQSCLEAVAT
Procedure: (§5) Transcription cofactor AF4, which is the most frequent (~35%) fusion protein in MLL1-r leukemia, is another binding partner of AF9/ENL [35, 36, 37]. The AF9/ENL-AF4 interactions are essential for the formation of SEC, which causes aberrant gene expression in MLL-r leukemia and other AMLs. Using our previously developed AlphaLisa assays, selected compounds were tested for their ability to inhibit the PPIs between AF9 or ENL and AF4.
as §1, §2

AF9-AF4 = target: T3, AF9-AF4 (Homo sapiens, UniProt P42568); experiment: AlphaLisa assay, AF9-AF4 interaction; assay type: binding; conditions: AF9 AHD, AF4 peptide
T3 construct: human AF9 AHD domain (475–568); made in house; host or cells: E. coli BL21(DE3)
T3 sequence (P42568 475-568): T1 sequence (P42568 475-568)
Procedure: as §5, §1, §2

HoxA9, Meis1 and Myc = experiment: RT-qPCR of MLL target genes in Molm-13 cells; assay type: cell-based; conditions: 1 and 5 µM, 4 days
From the text: The major function of the SEC is to promote transcription elongation for its bound genes. Because of the high affinity of the PPIs between AF9/ENL and AF4, onco-MLL (e.g., MLL-AF4 or MLL-AF9/-ENL) recruits SEC to MLL target genes, facilitates their expression, and eventually causes leukemia initiation. Next, we investigated whether selected inhibitors of these PPIs can inhibit the expression of HoxA9, Meis1 and Myc, which are MLL target genes and their high expression is characteristic of MLL-r leukemia. In addition, high expression of Myc is also observed in a broad range of AMLs and other cancers and is considered a driving factor for oncogenesis. To this end, RNAs from the control and compound-treated Molm-13 cells (harboring MLL-AF9) were extracted and subjected to quantitative PCR. […] RNA extraction and RT-qPCR were performed following our previous method. 10^5 cells/mL were incubated with a compound for 4 days and the RNA was extracted using an RNeasy mini kit (#74104, Qiagen, Germantown, MD, USA). 100–1000 ng of total RNA was reverse transcribed using iScript™ Reverse Transcription Supermix (Bio-Rad, Hercules, CA, USA), using the manufacturer’s protocol. Quantitative real-time PCR was carried out using Fast SYBR Green Master Mix (Applied Biosystems, Waltham, MA, USA) according to the manufacturer’s instructions. Measurements were performed in triplicate using GAPDH as the reference gene. Real-time PCR was performed using the Biosystems Step One Plus detection system. The following sequences of primers were used: […]

AF9-DOT1L interaction [3] = target: T1, AF9-DOT1L interaction; experiment: Pull-down assay of AF9 AHD with DOT1L peptide-coated beads; assay type: binding; conditions: for remaining activity at 10 µM / remaining activity at 50 µM: Western blot, read-out: AF9 AHD % Control; for remaining activity at 10 µM: compound 10 μM; for remaining activity at 50 µM: compound 50 μM; for Effect on AF9 AHD bound to DOT1L peptide-coated beads (in words): up to 50 µM
From the text: A pull-down assay was used to confirm that the strong inhibitors could disrupt the AF9-DOT1L interaction. Streptavidin agarose beads coated with biotinylated DOT1L peptide were used to pull-down the protein AF9 AHD in the solution, followed by thorough washing, SDS-PAGE (sodium dodecyl sulfate-polyacrylamide gel electrophoresis) and Western blotting to visualize and quantitate the protein. […] This alternative, non-optical method confirmed that compounds 24 and 50 can inhibit the PPI between AF9 and DOT1L.
The pull-down assays were conducted following our previous method. Briefly, the biotinylated DOT1L peptide (0.25 mg/mL) was incubated with streptavidin agarose beads (20 μL) in PBS containing 0.1% Triton X-100 (400 µL) for 3h to yield, after washing, DOT1L-coated beads. MBP-tagged AF9 AHD (0.2 µM, 400 µL) was pre-incubated with a compound for 1 h before adding to the beads. After 6 h incubation at 4 °C, the beads were collected, thoroughly washed, and subjected to SDS-PAGE and analyzed by Western blot using an MBP antibody (#2396, Cell signaling, Danvers, MA, USA).

[4] = MBP-protein 5 nM, biotinylated peptide 40 nM, 3 independent experiments with standard deviation

| SMILES | IC50 (AF9-DOT1L interaction [1]; [4]) [µM] | EC50 [2] [µM] | EC50 (Molm13) [µM] | EC50 (HL60) [µM] | EC50 (NB4) [µM] | Antitumor activity EC50, Hela (Hela) | EC50 (Hela) [µM] | EC50 (MV4;11) [µM] | IC50 (ENL-AF4) [µM] | IC50 (AF9-AF4) [µM] | Expression of MLL target genes HoxA9, Meis1 and Myc (in words) (HoxA9, Meis1 and Myc) | remaining activity at 10 µM (AF9-DOT1L interaction [3]) [%] | remaining activity at 50 µM (AF9-DOT1L interaction [3]) [%] | Effect on AF9 AHD bound to DOT1L peptide-coated beads (in words) (AF9-DOT1L interaction [3]) | IC50 (μM) against the AF9-DOT1L interaction (AF9-DOT1L interaction [1]; [4]) | inhibition at 5 µM (AF9-DOT1L interaction [1]; compound at 5 μM, read-out: % Inhibition at 5 μM against the AF9-DOT1L interaction) [%] | Inhibition of tumor cell proliferation (in words) [2] | IC50 ENL-AF4 (ENL-AF4) | IC50 AF9-AF4 (AF9-AF4) |
| --- | --- | --- | --- | --- | --- | --- | --- | --- | --- | --- | --- | --- | --- | --- | --- | --- | --- | --- | --- |
| Cl.O=C(NCC1CCNCC1)c1coc2cc(-c3ccc(N4CCCCC4)cc3)ccc12 [Compound 57, 6-(4-(Piperidin-1-yl)phenyl)-N-(piperidin-4-ylmethyl)-benzofuran-3-carboxamide hydrochloride] | 7.2 ± 0.4 | 9.7 to 21 | 13 ± 1.7 | 9.7 ± 1.2 | 11 ± 0.4 | did not affect the growth of Hela cells | 50 | 21 ± 1.2 |  |  |  |  |  |  |  |  |  |  |  |
| O=C(NCC1CCNCC1)c1cc2ccc(-c3ccc(N4CCCC4)cc3)cc2s1 [Compound 25, 6-(4-(Pyrrolindin-1-yl)phenyl)-N-(piperidin-4-ylmethyl)-benzo[b]thiophene-2-carboxamide hydrochloride] | 5.3 ± 0.1 | 8.7 to 26 | 9.4 ± 0.8 | 26 ± 2.6 | 10 ± 0.5 |  | 50 | 8.7 ± 0.9 | 7.9 ± 1.5 | 7.7 ± 0.9 |  |  |  |  |  |  |  |  |  |
| Cl.O=C(NCC1CCNCC1)c1cc2ccc(-c3ccc(N4CCCCC4)cc3)cc2s1 [Compound 24, 6-(4-(Piperidin-1-yl)phenyl)-N-(piperidin-4-ylmethyl)-benzo[b]thiophene-2-carboxamide hydrochloride] | 1.6 ± 0.2 |  | 4.7 ± 0.3 | 10 ± 1.8 | 5.3 ± 1.1 |  | 50 | 9.6 ± 1.2 | 2.6 ± 0.3 | 2.1 ± 0.3 | inhibited expression; also recorded: able to reduce the expression | 62 | 4 | significantly reduced the amounts of AF9 AHD; also recorded: dose-dependently reduce AF9 AHD |  |  |  |  |  |
| O=C(NCC1CCNCC1)c1c[nH]c2cc(-c3ccc(N4CCCCC4)cc3)ccc12 [Compound 2, 6-(4-(Piperidin-1-yl)phenyl)-N-(piperidin-4-ylmethyl)-1H-indole-3-carboxamide hydrochloride] | 4.5 ± 0.01 |  | 29 ± 2.5 | 50 | 32 ± 2 |  | > 50 | 33 ± 2.8 |  |  |  |  |  |  |  |  |  |  |  |
| Cl.NC(=O)c1ccc(-c2ccc3cc(C(=O)NCC4CCNCC4)sc3c2)cc1 [Compound 37, 6-(4-(Carbamoyl)phenyl)-N-(piperidin-4-ylmethyl)-benzo[b]thiophene-2-carboxamide hydrochloride] |  |  | > 50 | > 50 | > 50 |  | > 50 | > 50 | > 50 | > 50 | not and did not significantly affect the expression | 54 | 44 | did not significantly affect the AF9 AHD levels; also recorded: did not significantly affect the binding | inactive | 0 | None of these three compounds inhibited tumor cell proliferation | did not inhibit | did not inhibit |
| Cl.NCc1ccc(-c2ccc3cc(C(=O)NCC4CCNCC4)oc3c2)cc1 [Compound 72, 6-(4-(Aminomethyl)phenyl)-N-(piperidin-4-ylmethyl)-benzofuran-2-carboxamide hydrochloride] | > 30 |  | > 50 | > 50 | > 50 |  | > 50 | ~50 |  |  |  |  |  |  |  |  | None of these three compounds inhibited tumor cell proliferation |  |  |
| O=C(NCC1CCNCC1)c1cc2cc(-c3ccc(N4CCCC4)cc3)ccc2[nH]1 [Compound 16] | 2.7 ± 0.2 |  |  |  |  |  |  |  | 1.9 ± 0.3 | 1.9 ± 0.1 |  |  |  |  |  |  |  |  |  |
| O=C(NCC1CCNCC1)c1cc2cc(-c3cn[nH]c3)ccc2[nH]1 [Compound 22] | > 30 |  | > 50 | > 50 | > 50 |  | > 50 | > 50 | > 50 | > 50 |  |  |  |  |  |  | None of these three compounds inhibited tumor cell proliferation | did not inhibit | did not inhibit |
